For data set [1], the target named is Human immunodeficiency virus type 1 integrase (Human immunodeficiency virus 1, UniProt Q7ZJM1). Briefly: Allosteric inhibition of HIV-1 integrase by ELISA based IN-DNA assembly/Strand transfer assay. In general terms: ELISA stands for enzyme-linked immunosorbent assay.
Data set [2] deals with Human immunodeficiency virus 1. Briefly: Antiviral activity against wild type HIV-1 NL4-3 infected in human MT4 cells assessed as reduction in viral replication. Type of data set: functional, organism-based. The following applies: Human immunodeficiency virus 1, NL4-3, MT4.
The test system of data set [3] is Human immunodeficiency virus 1. Briefly: Antiviral activity against HIV-1 T125A infected in human MT4 cells assessed as reduction in viral replication. Format: functional, organism-based. The settings on record: Human immunodeficiency virus 1, T125A.
Data set [4] is described as follows: Metabolic stability in human liver microsome. Also: time not given here. Format: ADME. The settings on record: microsomes. On the technique in general: Liver microsomes are vesicles of endoplasmic reticulum, rich in cytochrome P450 enzymes.
Data set [5] is described as follows: Metabolic stability in rat liver microsome. Also: time not given here. Format: ADME. The settings on record: microsomes.
The nature of data set [6]: Permeability of the compound in human Caco-2 cells. Type of data set: ADME, cell-based. The settings on record: read-out: permeability. On the technique in general: Caco-2 cells form a polarised layer with tight junctions and transporters.
A short description of data set [7]: Volume of distribution at steady state in rat at 0.3 mg/kg, iv. Type of data set: ADME, organism-based. The following applies: in vivo, read-out: Vdss.
The nature of data set [8]: MRT in rat at 0.3 mg/kg, iv. Type of data set: ADME, organism-based. The following applies: in vivo.
A short description of data set [9]: Clearance in rat at 0.3 mg/kg, iv. Type of data set: ADME, organism-based. The settings on record: in vivo.
A short description of data set [10]: Oral bioavailability in rat at 3 mg/kg. Format: ADME, organism-based. The settings on record: in vivo.
A short description of data set [11]: Half life in rat at 0.3 mg/kg, iv. Type of data set: ADME, organism-based. The following applies: in vivo.

Sequence of Human immunodeficiency virus type 1 integrase (Q7ZJM1 whole entry): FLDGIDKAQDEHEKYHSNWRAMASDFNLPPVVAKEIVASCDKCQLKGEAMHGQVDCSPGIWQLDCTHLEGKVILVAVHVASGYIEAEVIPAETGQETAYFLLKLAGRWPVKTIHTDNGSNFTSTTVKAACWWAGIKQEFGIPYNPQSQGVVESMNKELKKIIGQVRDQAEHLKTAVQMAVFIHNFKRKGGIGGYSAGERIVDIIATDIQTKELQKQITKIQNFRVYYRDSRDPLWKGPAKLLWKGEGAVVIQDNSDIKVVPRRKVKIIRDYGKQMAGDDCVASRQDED

As usually defined, the IC50 is the midpoint of a concentration-inhibition curve. Read a low IC50 as greater potency. A word on the EC50: it is the midpoint of the concentration-response curve. Compound `Cc1ccc2c(c1C(OC(C)(C)C)C(=O)O)[C@]1(CC[C@H](C)CC1)CC2O` (some centres undefined) showed an IC50 in [1] of 430 nM. In addition, the EC50 in [2] is 15000 nM.

`Cc1ccc(-c2c([C@H](OC(C)(C)C)C(=O)O)c(C)nc3ccccc23)cc1C` yielded an IC50 in [1] of 12 nM.

The compound `Cc1ccc2c(c1C(OC(C)(C)C)C(=O)O)[C@]1(CCC2)CC[C@@H](C)CC1` (mixture of isomers) gave an IC50 in data set [1] of 50 nM. Also, in data set [2], the concentration giving a half-maximal response (EC50) was 4000 nM.

`Cc1cn([C@H]2C[C@H](N=[N+]=[N-])[C@@H](CO)O2)c(=O)[nH]c1=O` [ZIDOVUDINE]: the figures for the EC50 in data set [3] and in data set [2] were 38.9 nM and 29.9 nM, respectively.

Turning to `Cc1cc(NC(=O)CC(C)C)c2c(c1C(OC(C)(C)C)C(=O)O)[C@]1(CC2)CC[C@@H](C)CC1` (some centres undefined), the IC50 in [1] is 2.2 nM. The figures for the Stability in data set [4] and in data set [5] were 72% and 97%, respectively. In addition, the EC50 in data set [3] came to 940 nM; in data set [2] it was 30 nM. Moreover, the Papp in data set [6] stood at 29 ×10⁻⁶ cm/s.

In [1], `Cc1cc(C(=O)NC2CCCCC2)c2c(c1C(OC(C)(C)C)C(=O)O)[C@]1(CC2)CC[C@@H](C)CC1` (some centres undefined) returned an IC50 of 2 nM. Besides, the Stability in [4] was 94%; in data set [5], 99%. Further, the results for the EC50 in data set [3] and in data set [2] were 130 nM and 21 nM, respectively. The Papp in data set [6] was found to be 24 ×10⁻⁶ cm/s.

In turn, `CNC(=O)c1cc(C)c(C(OC(C)(C)C)C(=O)O)c2c1CC[C@]21CC[C@@H](C)CC1` (some centres undefined) yielded a concentration for half-maximal inhibition (IC50) in data set [1] of 160 nM. Besides, the Stability in [4] is given as 100%; in data set [5] it was 98%. The figures for the concentration giving a half-maximal response (EC50) in [3] and in data set [2] were 9900 nM and 560 nM, respectively. The Papp in data set [6] worked out at 8 ×10⁻⁶ cm/s.

`Cc1cc(C(=O)NC(C)C)c2c(c1C(OC(C)(C)C)C(=O)O)[C@]1(CC2)CC[C@@H](C)CC1` (some centres undefined) had a 50% inhibitory concentration (IC50) in [1] of 20 nM. Further, the Stability is listed as 99% in data set [4] and 96% in [5]. Besides, the EC50 in [3] stood at 2700 nM; in data set [2], 110 nM. Besides, the Papp in data set [6] stood at 13 ×10⁻⁶ cm/s.

In the case of `Cc1cc(C(=O)NCC(C)C)c2c(c1C(OC(C)(C)C)C(=O)O)[C@]1(CC2)CC[C@@H](C)CC1` (some centres undefined), in data set [1], the IC50 was 5.7 nM. In addition, the EC50 in [3] was determined as 3300 nM; in data set [2], 33 nM. The Papp in data set [6] stood at 15 ×10⁻⁶ cm/s.

`COC1C[C@]2(CC[C@@H](C)CC2)c2c1ccc(C)c2C(OC(C)(C)C)C(=O)O` (some centres undefined): the IC50 in [1] amounted to 53 nM. Besides, in [2], the EC50 was 2300 nM.

Turning to `Cc1cc(C(=O)NC2CCCCCC2)c2c(c1C(OC(C)(C)C)C(=O)O)[C@]1(CC2)CC[C@@H](C)CC1` (some centres undefined), the IC50 in data set [1] came out at 1.8 nM. Also, the Stability is recorded as 83% in data set [4] and 87% in [5]. Further, the EC50 was 580 nM in data set [3] and 21 nM in data set [2]. Also, the Papp in [6] came to 30 ×10⁻⁶ cm/s.

In the case of `Cc1ccc2c(c1C(OC(C)(C)C)C(=O)O)[C@]1(CC2)CC[C@@H](C)CC1` (mixture of isomers), it took 54 nM to reach half-maximal inhibition in [1] (IC50). The figures for the Stability in data set [4] and in data set [5] were 57% and 51%, respectively. For the same compound, the EC50 in data set [3] was over 6000 nM; in data set [2], 5300 nM. For the same compound, the Papp in data set [6] stood at 48 ×10⁻⁶ cm/s.

Take `Cc1cc(C(=O)N(C)C)c2c(c1C(OC(C)(C)C)C(=O)O)[C@]1(CC2)CC[C@@H](C)CC1` (some centres undefined): inhibition in data set [1] was half-maximal at 1800 nM (IC50). In addition, the figures for the Stability in [4] and in [5] were 97% and 94%, respectively. Also, the EC50 in data set [3] was over 6000 nM; in data set [2] it was 2600 nM. Besides, the Papp in data set [6] worked out at 7 ×10⁻⁶ cm/s.

The term MRT denotes the average time that molecules of a dose stay in the body. The clearance is a measure of how efficiently the substance is removed, as volume per time. A high value points to a high capacity for elimination. For orientation: bioavailability means the share of a dose that reaches the circulation, judged against a reference dose that is usually intravenous. High values mean much systemic uptake, low ones little systemic uptake. Broadly, the half-life is how long it takes for the measured level to halve. Regarding `Cc1cc(C(=O)NC2CCCCC2)c2c(c1[C@H](OC(C)(C)C)C(=O)O)[C@]1(CC2)CC[C@@H](C)CC1`, the IC50 in data set [1] was found to be 1.4 nM. In addition, the Vd in data set [7] is 0.57 L/kg. In addition, the MRT in data set [8] was 3.6 h. The figures for the Stability in data set [4] and in data set [5] were 91% and 100%, respectively. Besides, the EC50 in data set [3] was 120 nM; in data set [2], 7.4 nM. In [9], this compound showed a clearance of 2.67 mL/min/kg. Moreover, the bioavailability in data set [10] worked out at 64%. Besides, in [6], the Papp stood at 20 ×10⁻⁶ cm/s. The half-life in data set [11] is 4.2 h.

`Cc1ccc2c(c1C(OC(C)(C)C)C(=O)O)[C@]1(CC[C@H](C)CC1)CC2=O` (some centres undefined) had an IC50 in data set [1] of 490 nM. Further, in [2], the EC50 was found to be 3200 nM.

For `Cc1cc(C(=O)NC2CCCCC2)c2c(c1[C@@H](OC(C)(C)C)C(=O)O)[C@]1(CC2)CC[C@@H](C)CC1`, in data set [1], 8.3 nM corresponded to half-maximal inhibition (IC50). Besides, the Stability worked out at 92% in data set [4] and 100% in [5]. Also, the EC50 is 1200 nM in [3] and 110 nM in data set [2]. In addition, the Papp in data set [6] turned out to be 20 ×10⁻⁶ cm/s.
